{
  "source": "patent US6368618B1",
  "about": "“Composition and method for enhanced transdermal absorption of nonsteroidal anti-inflammatory drugs” (The University of Georgia Research Foundation, Inc., priority 1999, dated 2002)",
  "type_in_all_cases": "physicochemical",
  "key": {"[1]": {"assay": "Melt state of ibuprofen in aqueous isopropyl alcohol (optical microscope)", "parameters": "key: S: solid crystals present (FIG. 1-B); O: no crystals present (FIG. 1-A)", "settings": "25° C.", "excerpt": "The total weight of each mixture was 10 g.\nFIG. 1-A represents a two phase melt system with homogeneous oil and aqueous phases, and FIG. 1-B represents a system where complete melt is not achieved. […] (FIG. 1-B). […] (FIG. 1-A)."}, "[2]": {"assay": "Melt state of physical mixtures of S(+)-ibuprofen and thymol", "settings": "physical mixtures with thymol", "excerpt": "The melt states of the two compounds were then examined weekly for 3 months using an optical microscope."}, "[3]": {"assay": "Composition of the oil phase of two phase melt systems by GC-MS", "settings": "oil phase of dispersion with 15% isopropyl alcohol, no thymol", "protocol": "The composition of the oil phase formed in the dispersion containing 15% isopropyl alcohol was determined by the gas chromatrography-mass spectrometry (GC-MS) analysis.\nAfter ultracentrifugation at 20,000 rpm for 30 minutes at 25° C. of selected two phase melt systems (Systems I, II, III and IV as shown in Table 3) that had been stored at 25° C. for three months, a portion of the oil phase of these melt systems was removed using a micro-sampling tube and was weighed accurately by a taring method."}, "[4]": {"assay": "Melt state of ibuprofen and thymol in aqueous isopropyl alcohol", "settings": "racemic ibuprofen in place of S(+)-ibuprofen, with thymol and aqueous IPA, samples as in Table 3, 25° C.", "protocol": "(10 g total weight). Replicate samples of these mixtures were prepared at 25° C. and were stored at 25, 15, and 4° C. for three months. During storage, the melt states of the composition were examined weekly using an optical microscope. The results are shown in Table 3, where O and S denote systems described as in FIG. 1-A and 1-B, respectively, at the corresponding temperature. […] The lower the SI:T ratio and the higher the alcohol content, the lower the melting range of the solid components in the mixture, as shown by the attainment of the melt state. […] Thus the use of thymol and aqueous isopropyl alcohol in combination allows the preparation of two phase melt systems with the highest possible SI:T ratio and the lowest isopropyl alcohol content at 25° C."}},
  "data": [
    {"molecule": "CC(C)Cc1ccc([C@H](C)C(=O)O)cc1", "note": "[S(+)-ibuprofen, a-methyl-4-(2-methylpropyl) benzene-acetic acid]", "values": [
      {"measurement": "Melt state", "setting": "[1]; 5% S(+)-ibuprofen, 5% IPA, pH 4.0 acetate buffer, 3 months", "result": "S"},
      {"measurement": "Melt state", "setting": "[1]; 5% S(+)-ibuprofen, 10% IPA, pH 4.0 acetate buffer, 3 months", "result": "S"},
      {"measurement": "Melt state", "setting": "[1]; 5% S(+)-ibuprofen, 15% IPA, pH 4.0 acetate buffer, 3 months", "result": "O"},
      {"measurement": "Melt state", "setting": "[1]; 5% S(+)-ibuprofen, 20% IPA, pH 4.0 acetate buffer, 3 months", "result": "O"},
      {"measurement": "Melt state", "setting": "[1]; isopropyl alcohol 10% or less by weight of total composition", "result": "did not completely melt"},
      {"measurement": "Melt state", "setting": "[1]; isopropyl alcohol 15% or higher", "result": "completely transformed into an oil"},
      {"measurement": "Melt state", "setting": "[2]; SI:T ratios 5:5 to 6:4 (w:w), ambient temperature (20-25° C.)", "result": "spontaneously formed a homogeneous oil"},
      {"measurement": "Melt state", "setting": "[2]; SI:T ratios outside 5:5 to 6:4 (1:9 to 9:1 tested), 25° C.", "result": "complete melting of the compounds did not occur"},
      {"measurement": "concentration of S(+)-ibuprofen in the oil", "setting": "[3]", "result": "68.4 % (w:w)"}
    ]},
    {"molecule": "CC(C)Cc1ccc(C(C)C(=O)O)cc1", "note": "(racemic) [racemic ibuprofen, a-methyl-4-(2-methylpropyl) benzene-acetic acid]", "values": [
      {"measurement": "Melt state", "setting": "[1]; racemic ibuprofen in place of S(+)-ibuprofen, samples as in Table 2, even at 25% IPA or higher", "result": "complete melt was never achieved"},
      {"measurement": "Melt state", "setting": "[4]", "result": "complete melt of the solids was never achieved"}
    ]}
  ]
}
